The values that follow come from PubChem BioAssay (NCI).

Structures are written as SMILES.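 Exposure lasted 48 hours, with cells grown in 96-well plates and compounds tested at five concentrations. Here, GI50 denotes the concentration required for 50% inhibition of growth. Definition used: TGI = concentration required for complete inhibition of growth.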 Where only a bound is given, the exact number is not on record here.

What all share (test): growth of human tumour cells (NCI), 48 h
Test [1] concerns CAKI-1 renal.
Test [2] relates to IGROV1 ovarian.
Test [3] has as its system KM12 colon.
The subject of test [4] is LOX IMVI melanoma.
Test [5] relates to NCI/ADR-RES ovarian.
Test [6] deals with OVCAR-3 ovarian.
The subject of test [7] is SF-295 CNS.
Test [8] has as its system SK-MEL-2 melanoma.
Test [9] relates to SN12C renal.
The subject of test [10] is SNB-19 CNS.

As to `CC12CCC(CC1)C(C)(C)O2`, the GI50 is 15.7 µM in [1] and 20.8 µM in test [10]. The TGI in test [1] was greater than 61.2 µM; in [2], 86.3 µM; in [3] it was 118 µM; in [4] it was 48.7 µM; in test [5], 266 µM; in [6], 84.8 µM. Besides, the TGI was 116 µM in test [7], 118 µM in test [8], 71.7 µM in [9] and 103 µM in test [10].
`COc1ccc(-c2c(-c3ccccc3)c(C)nc3nc(SC)nc(SC)c23)cc1OC`: the TGI was greater than 100 µM in test [1]; greater than 100 µM in test [2]; greater than 100 µM in test [3]; 33.2 µM in [4]; greater than 100 µM in test [6]; 31.5 µM in test [7]. The figures for the TGI in test [8], in test [9] and in test [10] were 60.6 µM, greater than 100 µM and greater than 100 µM, respectively.
For the compound `O=C(O)/C=C/c1c[nH]c(=O)[nH]c1=O`, the TGI is greater than 500 µM in test [1]; greater than 500 µM in [2]; greater than 500 µM in test [3]; greater than 500 µM in test [4]; greater than 472 µM in [5]; greater than 500 µM in [6]. The TGI in test [7] is greater than 232 µM; in test [8], greater than 500 µM; in [9], greater than 500 µM; in test [10] it was greater than 500 µM. For the same compound, the GI50 in test [7] was greater than 158 µM; in [9], greater than 500 µM.
Regarding `C=C1C(=O)OC2CC(C)C3C4OC4C(O)C3(C)C(O)C12` (configuration not stated), the TGI in test [1] was 67.9 µM; in test [2], 52.1 µM; in test [3], 71.1 µM; in test [4], 65.3 µM; in [5], 91.9 µM; in test [6], 69.3 µM. Also, the TGI in test [7] was 98 µM; in [8], 72.7 µM; in [9], 72 µM; in test [10], 102 µM.
`C=C=CC(NC(=O)c1ccccc1)(C(=O)O)C(F)(F)F` (configuration not stated): the TGI in test [2], in test [3], in test [4], in test [7], in test [8] and in test [9] was greater than 100 µM each time. The TGI in test [10] was greater than 100 µM.
`O=C1/C(=C/c2ccc(O)cc2)COc2ccc(O)c(O)c21`: the GI50 is 3.02 µM in test [1]; 2.45 µM in test [2]; 1.99 µM in [3]; 1.47 µM in test [4]; 2.91 µM in test [5]; 2.05 µM in test [6]. Also, the GI50 is 5.36 µM in test [7], 6.21 µM in test [8] and 3.74 µM in test [10]. In addition, the TGI in test [1] is 12.9 µM; in test [2], 7.32 µM; in test [3], 6.04 µM; in [4], 3.22 µM; in test [5] it was greater than 100 µM; in test [6] it was 5.79 µM. For the same compound, the TGI in [7] was greater than 100 µM; in test [8] it was 38.6 µM; in test [10], greater than 100 µM.
On to `CCCCOP(C)(=O)C(NC(=O)OCC)(C(F)(F)F)C(F)(F)F` (configuration not stated), for which the TGI in test [1], in test [2], in [3], in [4], in test [5] and in test [6] was greater than 100 µM each time. For the same compound, the TGI in [7], in test [8], in [9] and in [10] was greater than 100 µM each time.
Take `Cc1cccc(N2C(=O)C3c4[nH]c5ccc(C)cc5c4C4CCC(C(C)(C)C)CC4C3C2=O)c1` (configuration not stated): the TGI in test [1] was greater than 100 µM; in test [2], greater than 100 µM; in test [3], 38 µM; in [4], 43.7 µM; in [5] it was 48.5 µM; in test [6] it was 28.9 µM. For the same compound, the values for the TGI in test [7], in [8] and in test [10] were 47.5 µM, greater than 100 µM and greater than 100 µM, respectively.
`CCCCCCCCCCCCCC[n+]1ccc(C)cc1`: the GI50 in [1] was 0.933 µM; in test [2], 0.349 µM; in [3] it was 0.281 µM; in test [4] it was 0.35 µM; in [5] it was 11.8 µM; in test [6], 0.351 µM. Besides, the GI50 was 3.25 µM in [7], 1.33 µM in test [8], 1.56 µM in [9] and 1.46 µM in test [10]. Further, the TGI in test [1] amounted to 2.66 µM; in test [2], 0.953 µM; in test [3], 0.802 µM; in [4], 1.36 µM; in test [5], 37 µM; in [6] it was 1.28 µM. The TGI in [7] worked out at 17.8 µM; in test [8], 2.83 µM; in [9] it was 4.11 µM; in [10], 4.02 µM.
